Test results published in patent US20020184656A1, “In vivo assay system for screening and validation of drugs and other substances” (priority 2001, published 2002).

How the values were obtained:
[1] = system: transgenic flies expressing human APC (hAPC/CBD) in developing eyes (using ey-GAL4); assay: Drug screening on human APC-induced eye phenotypes in transgenic flies (drug in fly food); type: in vivo, Drosophila; conditions: for Total number of flies with eye phenotypes (in parenthesis: total number of flies of right genotype) / Number of flies with eye phenotypic ranks 6-10 / Number of flies with eye phenotypic ranks 11-15 / Number of flies with eye phenotypic ranks 1-5 / Number of flies with eye phenotypic ranks 16-20: Ey-GAL4, hAPC/CBD
Procedure: Table 1 Distribution of eye phenotypes induced by hAPC/CBD in different genetic backgrounds and in the presence of various compounds and other anti-cancer drugs. Numbers are from a representative experiment. Number in parenthesis in the last column indicates total number of the flies of right genotype.
(§1) In yet another embodiment of the present invention, LD50 is determined for each of the chemicals tested. At concentrations LD50 and below, none of the drugs induce any morphological phenotypes in wildtype flies. Thereafter, the effect of these drugs on transgenic flies expressing human APC in developing eyes (using ey-GAL4) is examined.
Eye phenotypes induced by human APC are arranged in the order of severity from 1 to 20. Human APC in wildtype background induced phenotypes of ranks 1-9. […] WT—wild type eye.
(§2) For drug screening, drugs (at different concentrations) were added to fly food at <50° C. and left over-night for drying. Care was taken to ensure homogenous mixing of the drug in the fly food. Blind-tests were carried out, wherein the vials with or without drugs were coded (with the help of other members of the lab). The crosses were always set-up in triplicates. The method of administering drugs described above is only an example and should not be limited to it as there can be other ways of administering drugs.

[2] = system: Drosophila; assay: LD50 determination of the drugs in flies; type: in vivo; conditions: drug in fly food
Procedure: as §1, §2

[3] = 50 micrograms/ml fly food, 47 flies of right genotype
[4] = 200 microgram/ml fly food, 121 flies of right genotype
[5] = 500 micrograms/ml fly food, 59 flies of right genotype
[6] = 200 micrograms/ml fly food, 61 flies of right genotype

O=c1[nH]cc(F)c(=O)[nH]1 [5-fluorouracil]
Total number of flies with eye phenotypes (in parenthesis: total number of flies of right genotype) ([1]; 50 micrograms/ml fly food): 14(47)
Number of flies with eye phenotypic ranks 6-10 [1, 3]: 4
Number of flies with eye phenotypic ranks 11-15 [1, 3]: 1
Number of flies with eye phenotypic ranks 1-5 ([1]; 50 micrograms/ml fly food, 47 flies of right genotype, severity ranks 1 to 20): 9

COc1ccc2c(c1)c(CC(=O)O)c(C)n2C(=O)c1ccc(Cl)cc1 [Indomethacin]
LD50 [2]: 250 μg/ml of fly food
Total number of flies with eye phenotypes (in parenthesis: total number of flies of right genotype) ([1]; 200 microgram/ml fly food): 47(121)
Number of flies with eye phenotypic ranks 1-5 [1, 4]: 12
Number of flies with eye phenotypic ranks 6-10 [1, 4]: 8
Number of flies with eye phenotypic ranks 11-15 [1, 4]: 16
Number of flies with eye phenotypic ranks 16-20 [1, 4]: 11
Effect on human APC-induced eye phenotypes ([1]; ey-GAL4, extent similar to the enhancement shown by Df(3R)by^62): enhances human APC-induced eye phenotypes
Concentration dependence of the effect on human APC-induced eye phenotypes ([1]; ey-GAL4, human APC): concentration dependent
Concentration of maximum effect on human APC-induced eye phenotypes ([1]; ey-GAL4, human APC): 200 μg/ml of fly food
Ranks of eye phenotypes observed (severity 1 to 20) ([1]; human APC in wildtype background without drug: ranks 1-9, often resulting eyeless flies): 1-20

CN1C(C(=O)Nc2ccccn2)=C(O)c2ccccc2S1(=O)=O [Pyroxicam]
Total number of flies with eye phenotypes (in parenthesis: total number of flies of right genotype) ([1]; 500 micrograms/ml fly food): 21(59)
Number of flies with eye phenotypic ranks 1-5 [1, 5]: 11
Number of flies with eye phenotypic ranks 6-10 [1, 5]: 7
Number of flies with eye phenotypic ranks 11-15 [1, 5]: 1
Number of flies with eye phenotypic ranks 16-20 [1, 5]: 2

CC(=O)Oc1ccccc1C(=O)O [aspirin]
Total number of flies with eye phenotypes (in parenthesis: total number of flies of right genotype) ([1]; 200 micrograms/ml fly food): 19(61)
Number of flies with eye phenotypic ranks 1-5 [1, 6]: 13
Number of flies with eye phenotypic ranks 6-10 [1, 6]: 4
Number of flies with eye phenotypic ranks 11-15 [1, 6]: 2
